# In US10098842B2, “Method and a device for producing nanoparticles” (Nanoform Finland Oy, priority 2014, dated 2018):
# Test: Drug release (dissolution) tests in phosphate buffer pH 7.2
# Type: physicochemical
# Conditions: gelatin capsule, phosphate buffer pH 7.2, 37.0° C., 400 rpm
# Protocol: Drug release tests for piroxicam nanoparticles and bulk (reference) piroxicam were done to investigate the effect of particle size on the dissolution rate. The tests were conducted in glass vials under heating (37.0±0.5° C.) and stirring (400 rpm) (H+P Labortechnik AG, Multitherm, Germany). Samples were placed in a gelatin capsule and anchored with an iron wire to prevent the capsule from surfacing. The capsule was then placed in glass vials containing phosphate buffer (50 mL; pH 7.2). Aliquots (1 mL) were taken at the time points ranging from 1 min to 48 hours. Drug release tests were conducted in triplicate. Samples were analyzed with high performance liquid chromatography (HPLC Thermo System Products, Agilent 1200 Infinity Series, Agilent Technologies, Germany) using a Discovery® C18 (Supelco Analytical, U.S.) column with guard column and a flow rate of 1 mL/min. The mobile phase was 60:40 (v/v) acetonitrile and 0.05% trifluoroacetic acid. The UV detection of piroxicam was set to 333 nm with a retention time of 2.9 min and total run time of 4 min at 30° C. A standard curve for […] quantification was made from piroxicam concentrations of 0.1-25 μg/mL (R^2=0.999).
smiles,measurement,value
"CN1C(C(=O)Nc2ccccn2)=C(O)c2ccccc2S1(=O)=O [bulk piroxicam, 4-hydroxy-2-methyl-N-(2-pyridinyl)-2H-1,2-benzothiazine-3-carboxamide 1,1-dioxide]",dissolution rate compared with the literature (Lai et al. 2011),agreed and exceeded that reported in the literature
